This is an account of results in US10807993B2, “Dihydrochromene derivatives” (Sumitomo Dainippon Pharma Co., Ltd., priority 2018, dated 2020).

Read-outs that look alike come from different tables or passages of the source.

In one data set the test system is HT-29 cells. The data set can be described thus: Inhibition test for sphere formation assay of cancer cells. The format is cell-based. The settings on record: for IC50: sphere culture (ultra-low attachment, serum-free), 4 days, CellTiter-Glo, read-out: Sphere IC50 value (concentration for 50% inhibition of cell proliferation); for activity for inhibiting cell proliferation in the sphere culture condition: summary in words. The method, then:
Reliable methods established for measuring the self-renewal ability of cells which is one of the CSC's properties include a method for measuring the sphere-forming ability of cancer cells in non-adherent condition in the absence of serum (Cancer Res 65, 5506-5511 (2005)). HT-29 cells were available from American Type Culture Collection (ATCC). HT-29 cells were cultured at 37° C. under 5% CO2 using the McCoy's 5a medium containing 10% fetal bovine serum (FBS) and 1% penicillin/streptomycin. HT-29 cells were seeded in a 384 Well Black Clear Bottom Ultra-Low Attachment Microplate (Corning Cat. No. 3827) in an amount of 350-800 cells/well using the DMEM/F12 medium containing 2% B27 supplement (GIBCO), 20 ng/mL epidermal growth factor (EGF) (peprotech), 10 ng/mL basic fibroblast growth factor (bFGF) (peprotech), 5 μg/mL insulin (Sigma), and 1% penicillin/streptomycin. Each test compound was added into each well to adjust the final concentration of DMSO to 0.1%, and the cells were cultured for 4 days. The number of viable cells in each well was then measured with CellTiter-Glo™ Luminescent Cell Viability Assay (Promega) to calculate the concentration of each test compound for 50% inhibition of cell proliferation (Sphere IC50 value; […])
The experiment of Test 1 was performed for each compound of each Example. The concentration of each test compound for 50% inhibition of cell proliferation (Sphere IC50 value; μmol/L) is shown in the following Table.
In general terms: ATP-based viability assays read luminescence as a measure of living cells.

In a further data set the target is hERG (Homo sapiens (Human), UniProt Q12809). The data set can be described thus: Test for evaluating hERG inhibition (QPatch HT, CHO cell strain stably expressing hERG). Conditions: for hERG/HT-29: hERG IC50 (Test 2) divided by HT-29 sphere IC50 (Test 1); for deviation between the concentration of inhibiting 50% cell proliferation and the concentration of inhibiting 50% hERG current: summary in words of hERG/HT-29. A general note: The hERG channel carries a current that helps repolarise heart muscle cells.
Chain of hERG (Q12809 whole entry): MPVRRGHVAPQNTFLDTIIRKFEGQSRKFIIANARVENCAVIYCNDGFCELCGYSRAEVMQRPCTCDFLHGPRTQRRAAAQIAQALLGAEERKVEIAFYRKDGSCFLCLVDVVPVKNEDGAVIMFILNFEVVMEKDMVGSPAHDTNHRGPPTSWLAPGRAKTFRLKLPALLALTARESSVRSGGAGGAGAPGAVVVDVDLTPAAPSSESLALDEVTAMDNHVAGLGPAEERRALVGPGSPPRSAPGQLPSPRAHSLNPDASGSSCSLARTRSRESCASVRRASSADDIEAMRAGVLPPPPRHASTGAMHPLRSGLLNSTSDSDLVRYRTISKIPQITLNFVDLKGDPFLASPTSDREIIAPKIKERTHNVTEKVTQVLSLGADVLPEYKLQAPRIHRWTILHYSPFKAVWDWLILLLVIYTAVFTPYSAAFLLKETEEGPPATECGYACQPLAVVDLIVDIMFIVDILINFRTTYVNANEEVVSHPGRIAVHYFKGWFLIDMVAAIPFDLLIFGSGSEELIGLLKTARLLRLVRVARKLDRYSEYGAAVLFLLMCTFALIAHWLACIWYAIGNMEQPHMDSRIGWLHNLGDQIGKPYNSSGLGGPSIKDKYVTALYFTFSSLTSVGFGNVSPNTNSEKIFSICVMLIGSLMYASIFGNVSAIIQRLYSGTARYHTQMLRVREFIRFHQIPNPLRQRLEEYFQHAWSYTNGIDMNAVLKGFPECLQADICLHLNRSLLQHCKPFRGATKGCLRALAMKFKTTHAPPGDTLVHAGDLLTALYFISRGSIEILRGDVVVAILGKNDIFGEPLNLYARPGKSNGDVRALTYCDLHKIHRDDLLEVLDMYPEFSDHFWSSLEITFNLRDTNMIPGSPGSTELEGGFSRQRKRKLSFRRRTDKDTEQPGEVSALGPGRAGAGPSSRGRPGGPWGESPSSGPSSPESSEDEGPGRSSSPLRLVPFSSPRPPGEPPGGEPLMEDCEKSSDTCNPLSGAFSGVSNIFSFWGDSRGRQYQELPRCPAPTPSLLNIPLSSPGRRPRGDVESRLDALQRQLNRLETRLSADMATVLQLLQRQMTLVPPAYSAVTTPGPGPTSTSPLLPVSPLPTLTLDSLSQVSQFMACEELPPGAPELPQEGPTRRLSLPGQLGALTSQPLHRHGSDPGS

The mark [1] stands for this setting: read-out: Binding inhibition (IC50, μM), concentration at which 50% of the hERG current was inhibited, CHO cells stably expressing hERG, QPatch HT.

Procedure for hERG: To a cultured CHO cell strain which stably expresses hERG was added each test compound to adjust the final concentration of DMSO to 0.0135 to 0.5%. The hERG current was measured with QPatch HT (Sophion Inc.), and the concentration at which 50% of the hERG current was inhibited by each test compound (IC50 value; μM) was calculated.
The compounds of Examples were tested according to Test 2. And, the hERG/HT-29 was calculated by dividing the compound concentration obtained in Test 2 (50% of the hERG current is inhibited) by the compound concentration obtained in Test 1 (50% of the proliferation of HT-29 cells is inhibited).

Regarding `Cc1nccn1CC(=O)N1CCC2(CC1)COC1c3cc(Cl)ccc3OC(C)(C)C1C2` (racemic) [Example 1, Racemate of 1-[(4′aS,10′bS)-9′-chloro-5′,5′-dimethyl-4′a,10′b-dihydro-2′H,4′H,5′H-spiro[piperidine-4,3′-pyrano[3,2-c][1]benzopyran]-1-yl]-2-(2-methyl-1H-imidazol-1-yl)ethan-1-one and 1-[(4′aR,10′bR)-9′-chloro-5′,5′-dimethyl-4′a,10′b-dihydro-2′H, 4′H, 5′H-spiro[piperidine-4,3′-pyrano[3,2-c][1]benzopyran]-1-yl]-2-(2-methyl-1H-imidazol-1-yl)ethan-1-one], the IC50 with HT-29 cells (Homo sapiens, 96 h) was 80 nM; on hERG it was < 0.3 µM.

For `Cc1nc[nH]c1CN1CCC2(CC1)COC1c3ccc(Cl)cc3OC(C)(C)C1C2` (racemic) [Example 18, Racemate of (4′aR,10′bR)-8′-chloro-5′,5′-dimethyl-1-[(4-methyl-1H-imidazol-5-yl)methyl]-4′a,10′b-dihydro-2′H,4′H,5′H-spiro[piperidine-4,3′-pyrano[3,2-c][1]benzopyran] and (4′aS,10′bS)-8′-chloro-5′,5′-dimethyl-1-[(4-methyl-1H-imidazol-5-yl)methyl]-4′a,10′b-dihydro-2′H,4′H,5′H-spiro[piperidine-4,3′-pyrano[3,2-c][1]benzopyran]], the IC50 in the data set with HT-29 cells (Homo sapiens, 96 h) stood at 20 nM; at hERG, 0.6 µM. At hERG, this compound had a hERG/HT-29 of 30.

In the case of `CC1(C)Oc2cc(Cl)ccc2C2OCC3(CCN(CCn4ccnc4)CC3)CC21` (racemic) [Example 38, Racemate of (4′aR,10′bR)-8′-chloro-1-[2-(1H-imidazol-1-yl)ethyl]-5′,5′-dimethyl-4′a,10′b-dihydro-2′H,4′H,5′H-spiro[piperidine-4,3′-pyrano[3,2-c][1]benzopyran] and (4′aS,10′bS)-8′-chloro-1-[2-(1H-imidazol-1-yl)ethyl]-5′,5′-dimethyl-4′a,10′b-dihydro-2′H,4′H,5′H-spiro[piperidine-4,3′-pyrano[3,2-c][1]benzopyran]], in the data set with HT-29 cells (Homo sapiens, 96 h), the IC50 is < 10 nM. In addition, on hERG, the IC50 turned out to be 0.8 µM; the hERG/HT-29 is given as >80; the “deviation between the concentration of inhibiting 50% cell proliferation and the concentration of inhibiting 50% hERG current” value is on record as “good deviation”.

For the compound `Cc1nc[nH]c1CN1CCC2(CC1)COC1c3ccc(Cl)cc3OCC1C2` (racemic) [Example 64, Racemate of (4′aS,10′bR)-8′-chloro-1-[(4-methyl-1H-imidazol-5-yl)methyl]-4′a,10′b-dihydro-2′H,4′H,5′H-spiro[piperidine-4,3′-pyrano[3,2-c][1]benzopyran] and (4′aR,10′bS)-8′-chloro-1-[(4-methyl-H-imidazol-5-yl)methyl]-4′a,10′b-dihydro-2′H,4′H,5′H-spiro[piperidine-4,3′-pyrano[3,2-c][1]benzopyran]], in the data set on HT-29 cells (Homo sapiens, 96 h), the IC50 stood at 70 nM. Further, at hERG, the IC50 worked out at 0.4 µM and the hERG/HT-29 came to 5.71.

For `Cc1nccn1CC(=O)N1CCC2(CC1)COC1c3cc(Cl)ccc3OC(C)(C)C1C2` (single isomer, unassigned) [Example 4], the IC50 was 310 nM in the data set with HT-29 cells and < 0.3 µM at hERG (setting [1]).

As for `Cc1nc[nH]c1CN1CCC2(CC1)COC1c3ccc(Cl)cc3OCC1C2` (single isomer, unassigned) [Example 64a], in the data set with HT-29 cells, the IC50 was < 10 nM and the “activity for inhibiting cell proliferation in the sphere culture condition” value is “potent activity”. Moreover, at hERG, the hERG/HT-29 was >60; the “deviation between the concentration of inhibiting 50% cell proliferation and the concentration of inhibiting 50% hERG current” value was “good deviation”. In addition, at hERG (setting [1]), the IC50 is 0.6 µM.

Consider `Cc1nc[nH]c1CN1CCC2(CC1)COC1c3ccc(Cl)cc3OCC1C2` (single isomer, unassigned) [Example 64b], for which the IC50 in the data set on HT-29 cells is 50 nM; at hERG (setting [1]), < 0.3 µM.

`Cc1nccn1CC(=O)N1CCC2(CC1)COC1c3cc(F)ccc3OC(C)(C)C1C2` (stereo not shown) [Example 2]: the IC50 with HT-29 cells was 240 nM; on hERG (setting [1]), < 0.3 µM.

With `Cc1nccn1CC(=O)N1CCC2(CC1)COC1c3ccc(Cl)cc3OC(C)(C)C1C2` (stereo not shown) [Example 5], the IC50 with HT-29 cells was 410 nM; on hERG (setting [1]), < 0.3 µM.

Turning to `Cc1nccn1CC(=O)N1CCC2(CC1)COC1c3cccc(Cl)c3OC(C)(C)C1C2` (stereo not shown) [Example 6], the IC50 is 610 nM in the data set on HT-29 cells and < 0.3 µM at hERG (setting [1]).

As to `Cc1nccn1CC(=O)N1CCC2(CC1)COC1c3cc(Br)ccc3OC(C)(C)C1C2` (stereo not shown) [Example 7], the IC50 is 90 nM in the data set with HT-29 cells and < 0.3 µM at hERG (setting [1]).

For the compound `Cc1nccn1CC(=O)N1CCC2(CC1)COC1c3cccc(Br)c3OC(C)(C)C1C2` (stereo not shown) [Example 9], the IC50 in the data set with HT-29 cells is 770 nM; on hERG (setting [1]), < 0.3 µM.

For `Cc1nccn1CC(=O)N1CCC2(CC1)COC1c3cc(N=[N+]=[N-])ccc3OC(C)(C)C1C2` (stereo not shown) [Example 10], the IC50 is 240 nM in the data set with HT-29 cells and < 0.3 µM on hERG (setting [1]).

For `CC1(C)Oc2ccc(Cl)cc2C2OCC3(CCN(C(=O)Cn4cnc(CF)c4)CC3)CC21` (stereo not shown) [Example 16], in the data set with HT-29 cells, the IC50 is 4400 nM.

Turning to `Cc1nc[nH]c1CN1CCC2(CC1)COC1c3ccc(Cl)cc3OC(C)(C)C1C2` (stereo not shown) [Example 20], in the data set with HT-29 cells, the IC50 is < 10 nM and the “activity for inhibiting cell proliferation in the sphere culture condition” value is listed as “potent activity”. Also, on hERG, the hERG/HT-29 is >140; the “deviation between the concentration of inhibiting 50% cell proliferation and the concentration of inhibiting 50% hERG current” value was “good deviation”. For the same compound, the IC50 at hERG (setting [1]) amounted to 1.4 µM.

On to `Cc1nc[nH]c1CN1CCC2(CC1)COC1c3cc(F)ccc3OC(C)(C)C1C2` (stereo not shown) [Example 21], for which the IC50 was 210 nM in the data set on HT-29 cells and 1.5 µM at hERG (setting [1]). Further, the hERG/HT-29 on hERG came out at 7.14.

As for `Cc1nc[nH]c1CN1CCC2(CC1)COC1c3cc(F)ccc3OC(C)(C)C1C2` (stereo not shown) [Example 22], the results for the IC50 in the data set with HT-29 cells and at hERG (setting [1]) were 240 nM and 1.6 µM, respectively. On hERG, this compound yielded a hERG/HT-29 of 6.67.

As for `Cc1nc[nH]c1CN1CCC2(CC1)COC1c3cc(F)ccc3OC(C)(C)C1C2` (stereo not shown) [Example 23], the IC50 in the data set with HT-29 cells was found to be 60 nM; at hERG (setting [1]), 1.4 µM. In addition, the hERG/HT-29 at hERG is given as 23.3.

In the case of `Cc1nc[nH]c1CN1CCC2(CC1)COC1c3cc(Cl)ccc3OC(C)(C)C1C2` (stereo not shown) [Example 24], the results for the IC50 with HT-29 cells and at hERG (setting [1]) were 90 nM and 3.8 µM, respectively. In addition, on hERG, the hERG/HT-29 is on record as 42.2.

On to `Cc1nc[nH]c1CN1CCC2(CC1)COC1c3cc(Cl)ccc3OC(C)(C)C1C2` (stereo not shown) [Example 25], for which the IC50 is 70 nM in the data set with HT-29 cells and 0.4 µM at hERG (setting [1]). This compound also had a hERG/HT-29 at hERG of 5.7.

Regarding `Cc1nc[nH]c1CN1CCC2(CC1)COC1c3cc(Cl)ccc3OC(C)(C)C1C2` (stereo not shown) [Example 26], in the data set with HT-29 cells, the IC50 is < 10 nM and the “activity for inhibiting cell proliferation in the sphere culture condition” value is “potent activity”. In addition, on hERG, the hERG/HT-29 is listed as >60; the “deviation between the concentration of inhibiting 50% cell proliferation and the concentration of inhibiting 50% hERG current” value is listed as “good deviation”. Moreover, the IC50 on hERG (setting [1]) turned out to be 0.6 µM.

`Cc1nc[nH]c1CN1CCC2(CC1)COC1c3cccc(Cl)c3OC(C)(C)C1C2` (stereo not shown) [Example 27]: the IC50 in the data set on HT-29 cells worked out at 350 nM; at hERG (setting [1]), 0.4 µM. Further, on hERG, the hERG/HT-29 stood at 1.14.

Regarding `CCc1nc(C)c(CN2CCC3(CC2)COC2c4cc(Cl)ccc4OC(C)(C)C2C3)[nH]1` (stereo not shown) [Example 28], the IC50 with HT-29 cells was found to be 90 nM.

Take `CC1(C)Oc2ccc(Cl)cc2C2OCC3(CCN(Cc4c[nH]cn4)CC3)CC21` (stereo not shown) [Example 29]: the IC50 in the data set with HT-29 cells came out at 810 nM; at hERG (setting [1]) it was 2.6 µM. The compound further came in with a hERG/HT-29 on hERG of 3.21.

Turning to `Cc1nc(CN2CCC3(CC2)COC2c4cc(Cl)ccc4OC(C)(C)C2C3)c[nH]1` (stereo not shown) [Example 30], the IC50 is 2280 nM with HT-29 cells and 1.7 µM on hERG (setting [1]). The compound also yielded a hERG/HT-29 at hERG of 7.46.

`Cn1ccnc1CN1CCC2(CC1)COC1c3cc(Cl)ccc3OC(C)(C)C1C2` (stereo not shown) [Example 36]: in the data set on HT-29 cells, the IC50 amounted to 40 nM.

Turning to `Cc1nccn1CCN1CCC2(CC1)COC1c3cc(Cl)ccc3OC(C)(C)C1C2` (stereo not shown) [Example 46], at hERG, the hERG/HT-29 is reported as >120; the “deviation between the concentration of inhibiting 50% cell proliferation and the concentration of inhibiting 50% hERG current” value is recorded as “good deviation”. Moreover, the IC50 on hERG (setting [1]) was 1.2 µM.

Turning to `CC1(C)Oc2ccc(F)cc2C2OCC3(CCN(CCn4ccnc4CO)CC3)CC21` (stereo not shown) [Example 52], in the data set on HT-29 cells, the IC50 is < 10 nM and the “activity for inhibiting cell proliferation in the sphere culture condition” value is recorded as “potent activity”.

Turning to `CC1(C)Oc2ccc(Cl)cc2C2OCC3(CCN(CCn4ccnc4CO)CC3)CC21` (stereo not shown) [Example 53], in the data set with HT-29 cells, the IC50 is < 10 nM and the “activity for inhibiting cell proliferation in the sphere culture condition” value is on record as “potent activity”.

Regarding `COC(=O)c1cn(CCN2CCC3(CC2)COC2c4cc(Cl)ccc4OC(C)(C)C2C3)cn1` (stereo not shown) [Example 59], in the data set with HT-29 cells, the IC50 came to 980 nM.

Consider `CC1(C)Oc2cc(Cl)ccc2C2OCC3(CCN(CCn4ccnc4CCN)CC3)CC21` (stereo not shown) [Example 62], for which the IC50 on hERG (setting [1]) came to 6.3 µM.
